According to ChEMBL document CHEMBL1201862, “PubChem BioAssay data set” (2004):
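The compound was tested at five concentrations on cells cultured in 96-well plates, with a 48-hour exposure period. Here, GI50 denotes the concentration required for 50% inhibition of growth.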 Active and inactive are the calls of the source. No stated cut-off is given here; in the data, active = GI50 up to about 1.1 µM and inactive = higher.

What was measured:
Experiment in all cases: growth of human tumour cells (NCI), 48 h
[1] = system: RPMI-8226
[2] = system: SNB-19
[3] = system: OVCAR-8
[4] = system: M14
[5] = system: Malme-3M
[6] = system: NCI-H226
[7] = system: HCT-116
[8] = system: HOP-92
[9] = system: TK-10
[10] = system: CCRF-CEM
[11] = system: NCI-H23
[12] = system: EKVX
[13] = system: COLO 205
[14] = system: SN12C
[15] = system: U-251
[16] = system: HT-29
[17] = system: ACHN
[18] = system: SF-539
[19] = system: HL-60
[20] = system: MOLT-4

Row | Structure (SMILES) | GI50 [1] | GI50 [2] | GI50 [3] | GI50 [4] | GI50 [5] | GI50 [6] | GI50 [7] | GI50 [8] | GI50 [9] | GI50 [10] | GI50 [11] | GI50 [12] | GI50 [13] | GI50 [14] | GI50 [15] | GI50 [16] | GI50 [17] | GI50 [18] | GI50 [19] | GI50 [20]
1 | NC(=O)Nc1ccc(S(=O)(=O)Nc2ccc(S(N)(=O)=O)cc2)cc1 | > 100 µM (inactive) | > 100 µM (inactive) | > 100 µM (inactive) | > 100 µM (inactive) | > 100 µM (inactive) | > 100 µM (inactive) | > 100 µM (inactive) | 37.2 µM (inactive) | > 100 µM (inactive) | > 100 µM (inactive) | > 100 µM (inactive) | > 100 µM (inactive) | > 100 µM (inactive) | > 100 µM (inactive) | > 100 µM (inactive) | > 100 µM (inactive) | > 100 µM (inactive) | – | – | –
2 | CC(C)(C)CNCCO | > 100 µM (inactive) | > 100 µM (inactive) | > 100 µM (inactive) | > 100 µM (inactive) | > 100 µM (inactive) | > 100 µM (inactive) | > 100 µM (inactive) | > 100 µM (inactive) | > 100 µM (inactive) | > 100 µM (inactive) | > 100 µM (inactive) | > 100 µM (inactive) | > 100 µM (inactive) | > 100 µM (inactive) | > 100 µM (inactive) | > 100 µM (inactive) | > 100 µM (inactive) | > 100 µM (inactive) | > 100 µM (inactive) | –
3 | CCOC(=O)C(/C(=N\NC(=O)OC)C(=O)Nc1cc(OC)ccc1OC)c1cnc2ccccc2n1 (stereo unspecified) | > 100 µM (inactive) | – | > 100 µM (inactive) | > 100 µM (inactive) | > 100 µM (inactive) | > 100 µM (inactive) | > 100 µM (inactive) | > 100 µM (inactive) | > 100 µM (inactive) | > 100 µM (inactive) | > 100 µM (inactive) | > 100 µM (inactive) | > 100 µM (inactive) | > 100 µM (inactive) | > 100 µM (inactive) | > 100 µM (inactive) | > 100 µM (inactive) | > 100 µM (inactive) | 69.2 µM (inactive) | –
4 | NNC(=O)CCC(=O)Nc1ccc(Cl)cc1Cl | 80.5 µM (inactive) | > 100 µM (inactive) | > 100 µM (inactive) | 45.1 µM (inactive) | > 100 µM (inactive) | > 100 µM (inactive) | > 100 µM (inactive) | > 100 µM (inactive) | > 100 µM (inactive) | > 100 µM (inactive) | > 100 µM (inactive) | – | > 100 µM (inactive) | > 100 µM (inactive) | > 100 µM (inactive) | > 100 µM (inactive) | > 100 µM (inactive) | > 100 µM (inactive) | 94.4 µM (inactive) | > 100 µM (inactive)
5 | c1ccc(C2=Nn3c(CCCCCCCCc4nnc5n4N=C(c4ccccc4)CS5)nnc3SC2)cc1 | > 100 µM (inactive) | 18.4 µM (inactive) | > 46.5 µM (inactive) | 37.6 µM (inactive) | 28.2 µM (inactive) | 72.1 µM (inactive) | > 66.1 µM (inactive) | 34.2 µM (inactive) | 29.2 µM (inactive) | 22.6 µM (inactive) | > 74.6 µM (inactive) | 76.2 µM (inactive) | > 100 µM (inactive) | > 88.1 µM (inactive) | 15.6 µM (inactive) | 19.6 µM (inactive) | 40.6 µM (inactive) | 3.45 µM (inactive) | – | 32.4 µM (inactive)
6 | CC(=O)OC(OC(C)=O)c1ncccc1C(=O)OC(C)C | – | > 100 µM (inactive) | > 100 µM (inactive) | > 100 µM (inactive) | > 100 µM (inactive) | > 100 µM (inactive) | 57.8 µM (inactive) | 18.2 µM (inactive) | > 100 µM (inactive) | 7.26 µM (inactive) | 56.1 µM (inactive) | > 100 µM (inactive) | 47.4 µM (inactive) | > 100 µM (inactive) | 18.3 µM (inactive) | 33.3 µM (inactive) | > 100 µM (inactive) | 56 µM (inactive) | 8.65 µM (inactive) | 35.1 µM (inactive)
7 | O=C(/C=C\c1ccc([N+](=O)[O-])cc1)c1ccccc(=O)c1O | 0.682 µM (active) | 4.65 µM (inactive) | 0.9 µM (active) | 1.29 µM (inactive) | 0.873 µM (active) | 1.65 µM (inactive) | 0.659 µM (active) | 0.256 µM (active) | 2.49 µM (inactive) | < 0.0319 µM (active) | 2.33 µM (inactive) | 1.81 µM (inactive) | 0.397 µM (active) | 4.81 µM (inactive) | 1.01 µM (active) | 1.04 µM (active) | 1.01 µM (active) | – | 0.538 µM (active) | 0.721 µM (active)
8 | CN(C)C1=NC2=S(SC(Nc3ccccc3)=N2)S1 (stereo unspecified) | 9.33 µM (inactive) | 26.3 µM (inactive) | 26.6 µM (inactive) | 58.1 µM (inactive) | 16.1 µM (inactive) | 22.2 µM (inactive) | 10.5 µM (inactive) | 22.7 µM (inactive) | 27.9 µM (inactive) | 15.5 µM (inactive) | 28.2 µM (inactive) | 12.9 µM (inactive) | – | 31.3 µM (inactive) | 19.4 µM (inactive) | 33.6 µM (inactive) | 11.9 µM (inactive) | 20.2 µM (inactive) | 10 µM (inactive) | 10.3 µM (inactive)
9 | CC(=O)N(O)[C@@H]1CC[C@H](n2cnc3c(N)ncnc32)C1 | > 100 µM (inactive) | > 100 µM (inactive) | > 100 µM (inactive) | > 100 µM (inactive) | > 100 µM (inactive) | > 100 µM (inactive) | > 100 µM (inactive) | > 100 µM (inactive) | > 100 µM (inactive) | > 100 µM (inactive) | > 100 µM (inactive) | > 100 µM (inactive) | > 100 µM (inactive) | > 100 µM (inactive) | > 100 µM (inactive) | – | > 100 µM (inactive) | > 100 µM (inactive) | – | > 100 µM (inactive)
10 | Cc1ccc(C(=O)c2[nH]c(Nc3cc(C)ccn3)c(C(=S)Nc3ccccc3)c2N)cc1 | – | > 100 µM (inactive) | > 100 µM (inactive) | > 100 µM (inactive) | > 100 µM (inactive) | > 100 µM (inactive) | > 100 µM (inactive) | > 100 µM (inactive) | > 100 µM (inactive) | > 100 µM (inactive) | > 100 µM (inactive) | > 100 µM (inactive) | > 100 µM (inactive) | > 100 µM (inactive) | > 100 µM (inactive) | > 100 µM (inactive) | > 100 µM (inactive) | > 100 µM (inactive) | > 100 µM (inactive) | > 100 µM (inactive)
11 | CN(CCCNCc1ccccn1)Cc1ccccc1O | 36.3 µM (inactive) | 21.6 µM (inactive) | 26.8 µM (inactive) | – | 27.8 µM (inactive) | 15.4 µM (inactive) | 60.4 µM (inactive) | 42.9 µM (inactive) | 7.21 µM (inactive) | 50.8 µM (inactive) | 14.4 µM (inactive) | 33.4 µM (inactive) | 29 µM (inactive) | 71.1 µM (inactive) | 96.8 µM (inactive) | 22 µM (inactive) | 13.9 µM (inactive) | – | 2.74 µM (inactive) | 13.7 µM (inactive)
12 | COc1ccc(-c2cc(-c3cc4cc(Br)ccc4nc3Cl)c(C#N)c(N)n2)cc1 | > 12.5 µM (inactive) | > 12.5 µM (inactive) | > 12.5 µM (inactive) | > 12.5 µM (inactive) | > 12.5 µM (inactive) | > 12.5 µM (inactive) | > 12.5 µM (inactive) | > 12.5 µM (inactive) | – | > 12.5 µM (inactive) | > 12.5 µM (inactive) | > 12.5 µM (inactive) | > 12.5 µM (inactive) | > 12.5 µM (inactive) | – | > 12.5 µM (inactive) | – | > 12.5 µM (inactive) | > 12.5 µM (inactive) | 9.66 µM (inactive)
13 | COc1ccc(CNc2nc3ccccc3nc2C(=O)O)cc1OC | > 100 µM (inactive) | – | > 100 µM (inactive) | – | > 100 µM (inactive) | > 100 µM (inactive) | > 100 µM (inactive) | 17.1 µM (inactive) | > 100 µM (inactive) | > 100 µM (inactive) | > 100 µM (inactive) | > 100 µM (inactive) | > 100 µM (inactive) | 91.6 µM (inactive) | 97.7 µM (inactive) | > 100 µM (inactive) | > 100 µM (inactive) | > 100 µM (inactive) | > 100 µM (inactive) | > 100 µM (inactive)
14 | CC1(C)[C@@H]2C[C@H]1c1cnc(-c3ccccn3)cc1C2[C@@H]1c2cc(-c3ccccn3)ncc2[C@@H]2C[C@H]1C2(C)C (stereo partly specified) | 31.7 µM (inactive) | 69.3 µM (inactive) | 46.8 µM (inactive) | 38 µM (inactive) | 58.9 µM (inactive) | 28.4 µM (inactive) | 49 µM (inactive) | > 100 µM (inactive) | 16.6 µM (inactive) | 47.5 µM (inactive) | 41.2 µM (inactive) | > 100 µM (inactive) | 49.1 µM (inactive) | 97.5 µM (inactive) | 36.1 µM (inactive) | 45.3 µM (inactive) | 40.5 µM (inactive) | – | 36.4 µM (inactive) | 44 µM (inactive)
15 | Cc1ccc(S(=O)(=O)NC(=O)NCCc2c[nH]cn2)cc1 | > 100 µM (inactive) | > 100 µM (inactive) | > 100 µM (inactive) | > 100 µM (inactive) | > 100 µM (inactive) | > 100 µM (inactive) | > 100 µM (inactive) | > 100 µM (inactive) | > 100 µM (inactive) | – | > 100 µM (inactive) | > 100 µM (inactive) | > 100 µM (inactive) | – | > 100 µM (inactive) | > 100 µM (inactive) | > 100 µM (inactive) | > 100 µM (inactive) | > 100 µM (inactive) | > 100 µM (inactive)
